The test system of data set [1] is CamA. The class given is biochemical.
Data set [2] concerns A549 human non-small cell lung carcinoma (NSCLC) cells. The class given is cell-based. The note with it: three days, same conditions as compound 11.
For data set [3], the target named is TDG (Homo sapiens, UniProt Q13569). In kind it is biochemical.
Data set [4] has as its target T1, MYH (Mus musculus, UniProt Q99P21).
T1 sequence (Q99P21 1-515): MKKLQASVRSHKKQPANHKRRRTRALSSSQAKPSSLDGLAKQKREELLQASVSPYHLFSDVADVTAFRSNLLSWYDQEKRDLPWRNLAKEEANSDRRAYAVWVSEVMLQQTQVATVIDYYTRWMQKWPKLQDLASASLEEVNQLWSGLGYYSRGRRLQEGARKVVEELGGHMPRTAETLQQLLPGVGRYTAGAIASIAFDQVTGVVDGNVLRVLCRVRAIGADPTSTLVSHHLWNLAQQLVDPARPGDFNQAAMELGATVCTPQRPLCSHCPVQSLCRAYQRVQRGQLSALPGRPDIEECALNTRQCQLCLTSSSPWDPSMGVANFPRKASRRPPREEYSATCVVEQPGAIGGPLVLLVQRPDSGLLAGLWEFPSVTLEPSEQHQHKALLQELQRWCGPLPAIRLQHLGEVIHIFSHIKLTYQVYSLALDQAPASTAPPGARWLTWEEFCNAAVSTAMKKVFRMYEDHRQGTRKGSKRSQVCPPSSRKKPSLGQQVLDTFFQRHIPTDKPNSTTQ
In kind it is biochemical. The note with it: inhibitor 2 μM.

Data set [5] deals with T2, MBD4 (Mus musculus, UniProt Q9Z2D7).
T2 sequence (Q9Z2D7 411-554 limits assumed): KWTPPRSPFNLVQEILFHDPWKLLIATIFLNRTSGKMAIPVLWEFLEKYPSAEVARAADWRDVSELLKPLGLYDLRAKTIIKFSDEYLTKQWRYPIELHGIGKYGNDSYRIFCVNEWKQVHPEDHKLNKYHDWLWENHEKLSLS
The class given is biochemical. The note with it: inhibitor 2 μM.

For data set [6], the target named is human DNMT1 (Homo sapiens, UniProt P26358). The data set can be described thus: biochemical.
human DNMT1, sequence (P26358 350-1600): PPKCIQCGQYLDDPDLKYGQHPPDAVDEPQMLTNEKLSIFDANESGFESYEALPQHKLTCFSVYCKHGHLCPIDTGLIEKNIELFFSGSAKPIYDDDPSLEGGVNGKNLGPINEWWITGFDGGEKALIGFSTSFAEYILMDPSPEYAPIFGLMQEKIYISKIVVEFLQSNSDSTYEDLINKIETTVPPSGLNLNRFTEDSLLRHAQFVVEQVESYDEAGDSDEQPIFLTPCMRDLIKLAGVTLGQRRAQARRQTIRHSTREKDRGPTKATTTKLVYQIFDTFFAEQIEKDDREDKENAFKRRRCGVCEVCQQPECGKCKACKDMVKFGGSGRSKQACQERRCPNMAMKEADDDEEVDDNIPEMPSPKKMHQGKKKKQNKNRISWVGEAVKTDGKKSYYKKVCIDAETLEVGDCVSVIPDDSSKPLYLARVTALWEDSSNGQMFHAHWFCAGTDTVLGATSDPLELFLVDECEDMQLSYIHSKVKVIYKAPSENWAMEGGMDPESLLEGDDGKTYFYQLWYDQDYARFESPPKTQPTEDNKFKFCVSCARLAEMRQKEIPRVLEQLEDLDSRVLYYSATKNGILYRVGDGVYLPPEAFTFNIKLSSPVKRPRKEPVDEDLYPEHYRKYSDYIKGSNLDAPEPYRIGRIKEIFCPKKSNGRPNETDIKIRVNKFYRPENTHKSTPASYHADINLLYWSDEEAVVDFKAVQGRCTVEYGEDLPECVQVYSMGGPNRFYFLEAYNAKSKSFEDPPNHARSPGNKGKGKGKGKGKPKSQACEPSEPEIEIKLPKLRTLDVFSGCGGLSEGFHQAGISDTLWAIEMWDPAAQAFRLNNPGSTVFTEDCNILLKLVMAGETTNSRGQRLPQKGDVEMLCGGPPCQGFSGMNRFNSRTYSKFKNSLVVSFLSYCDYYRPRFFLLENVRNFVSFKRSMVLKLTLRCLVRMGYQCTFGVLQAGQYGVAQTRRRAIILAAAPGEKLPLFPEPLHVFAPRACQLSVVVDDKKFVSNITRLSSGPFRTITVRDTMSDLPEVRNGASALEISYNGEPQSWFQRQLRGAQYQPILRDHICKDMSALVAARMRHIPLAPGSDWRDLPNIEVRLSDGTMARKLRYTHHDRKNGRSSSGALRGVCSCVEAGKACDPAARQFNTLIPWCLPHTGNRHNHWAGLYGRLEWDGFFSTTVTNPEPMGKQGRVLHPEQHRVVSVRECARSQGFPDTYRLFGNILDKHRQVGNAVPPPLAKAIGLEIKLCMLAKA
Data set [7] concerns the target Dam (Escherichia coli, UniProt P0AEE8). The class given is biochemical.
The test system of data set [8] is Pol θ. In kind it is biochemical, Human. The note with it: 50 μM.
Data set [9] deals with CcrM (Caulobacter vibrioides, UniProt P0CAW2). The class given is biochemical.
CcrM, sequence (P0CAW2 whole entry): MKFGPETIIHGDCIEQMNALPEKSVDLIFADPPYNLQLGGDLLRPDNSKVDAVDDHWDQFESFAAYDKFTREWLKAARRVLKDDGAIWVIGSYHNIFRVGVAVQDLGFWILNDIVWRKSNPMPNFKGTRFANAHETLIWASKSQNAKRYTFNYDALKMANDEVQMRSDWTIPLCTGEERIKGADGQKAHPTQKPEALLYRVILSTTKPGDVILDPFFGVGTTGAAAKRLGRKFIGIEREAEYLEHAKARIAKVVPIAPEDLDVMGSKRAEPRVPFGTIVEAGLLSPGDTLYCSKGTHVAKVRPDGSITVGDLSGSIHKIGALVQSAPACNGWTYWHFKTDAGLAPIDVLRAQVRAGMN
Data set [10] deals with T3, Pol η (Homo sapiens, UniProt Q9Y253).
T3 sequence (Q9Y253 1-432 limits assumed): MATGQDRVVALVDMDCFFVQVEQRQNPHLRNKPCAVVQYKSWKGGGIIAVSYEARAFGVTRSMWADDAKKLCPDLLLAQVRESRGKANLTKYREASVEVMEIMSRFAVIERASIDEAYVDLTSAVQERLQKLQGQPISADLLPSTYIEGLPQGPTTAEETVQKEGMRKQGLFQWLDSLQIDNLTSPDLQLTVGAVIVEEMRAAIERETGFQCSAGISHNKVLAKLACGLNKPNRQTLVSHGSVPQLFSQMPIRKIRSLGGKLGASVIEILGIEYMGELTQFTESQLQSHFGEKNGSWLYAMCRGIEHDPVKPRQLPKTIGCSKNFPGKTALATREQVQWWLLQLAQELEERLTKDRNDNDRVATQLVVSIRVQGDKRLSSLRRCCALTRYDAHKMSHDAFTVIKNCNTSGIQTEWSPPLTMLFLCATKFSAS
In words: Pol η nucleotide incorporation assay. The class given is biochemical.

In data set [11] the target is DNMT3A2–3L complex (Homo sapiens, UniProt Q9Y6K1). The class given is biochemical. The note with it: [E]/[DNA] 1:2 versus 1:10, 10 μM.

TDG, sequence (Q13569 whole entry): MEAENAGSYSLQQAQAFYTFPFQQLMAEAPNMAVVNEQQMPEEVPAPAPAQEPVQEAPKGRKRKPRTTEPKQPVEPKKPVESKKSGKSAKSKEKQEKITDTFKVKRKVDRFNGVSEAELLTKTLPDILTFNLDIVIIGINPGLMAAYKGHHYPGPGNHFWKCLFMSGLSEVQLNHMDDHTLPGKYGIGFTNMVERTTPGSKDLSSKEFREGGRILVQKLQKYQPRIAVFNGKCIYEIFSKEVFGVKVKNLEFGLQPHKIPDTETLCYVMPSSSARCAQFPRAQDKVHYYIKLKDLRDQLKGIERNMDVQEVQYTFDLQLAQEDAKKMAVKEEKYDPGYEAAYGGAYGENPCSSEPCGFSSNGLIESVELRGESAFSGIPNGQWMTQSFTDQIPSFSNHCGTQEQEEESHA
Dam, sequence (P0AEE8 whole entry): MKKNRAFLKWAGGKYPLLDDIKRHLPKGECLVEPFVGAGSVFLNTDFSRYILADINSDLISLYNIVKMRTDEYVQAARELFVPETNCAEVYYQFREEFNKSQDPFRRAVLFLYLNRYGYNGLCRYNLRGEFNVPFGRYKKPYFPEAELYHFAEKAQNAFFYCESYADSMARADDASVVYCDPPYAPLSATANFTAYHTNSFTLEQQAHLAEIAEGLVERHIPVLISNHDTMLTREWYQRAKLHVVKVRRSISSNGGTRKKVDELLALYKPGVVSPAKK

The term IC50 denotes the concentration needed to halve the response being measured. As to `OC[C@H]1O[C@@H](n2cnc3c(NCCCc4ccccc4)ncnc32)[C@H](O)[C@@H]1O` [MC4741, (2R,3S,4R,5R)-2-(Hydroxymethyl)-5-(6-((3-phenylpropyl)-amino)-9H-purin-9-yl)tetrahydrofuran-3,4-diol], the IC50 in [1] (read-out: IC50 against CamA) was determined as 700 nM.

Regarding `CCc1c(C#N)c(SC(C(N)=O)c2ccccc2)nc(N(C)C)c1C#N` (centres unmarked) [GSK3484862], in data set [2], the “A549 cell viability / toxicity (in words)” value was “viabilities similar to control cells”.

For `Cc1cc(Nc2ccc(NC(=O)c3ccc(Nc4ccnc5ccccc45)cc3)cc2)nc(N)n1` [Compound 1], the “inhibition of TDG activity on T:G mismatch” value in data set [3] is “do not exhibit effective inhibition”. Also, in data set [4], the “inhibition of MYH excision of adenine opposite 8-oxoG” value is “do not exhibit effective inhibition”. Also, the “inhibition of CamA” value in data set [1] (10 μM) was “less than 50%”. In data set [5], the “inhibition of MBD4 activity on T:G mismatch” value is listed as “do not exhibit effective inhibition” and the “inhibition of MBD4 activity on U:G mismatch” value is on record as “do not exhibit effective inhibition”. In addition, the “inhibition of DNMT1” value in data set [6] (10 μM compound, [E]/[DNA]=1:10) is recorded as ~ 70%. Moreover, the “inhibition of Dam (in words)” value in data set [7] is given as “no inhibitory effect at all”. Moreover, the “inhibition of Pol θ activity” value in data set [8] is ~ 50%. Further, in [9], the “inhibition of CcrM (in words)” value was “no inhibitory effect at all”. Further, the “inhibition of Pol η activity” value in data set [10] (10 μM compound) is listed as “more than 50%”.

The term inhibition denotes the change of the read-out against control, counted positive when it falls. As to `Nc1ncnc2c1ncn2[C@@H]1O[C@H](C[C@@H](N)CC[C@H](N)C(=O)O)[C@@H](O)[C@H]1O` [sinefungin], the “inhibition of CamA (in words)” value in [1] is reported as “limited inhibition”. Also, the inhibition at 10 µM in [6] (read-out: inhibition of DNMT1) is ~50%. The “change of DNMT3A2–3L inhibition as a function of DNA substrate concentration” value in [11] was “did not change”. Besides, in data set [9], the “inhibition of CcrM (in words)” value is on record as “significant inhibition”. The “impact on Pol η polymerase activity (in words)” value in data set [10] (10 μM) was “no impact on polymerase activity”.

The values above are taken from PMC11663113 (Cell chemical biology, 2024).
